# Measurements taken from ChEMBL document CHEMBL1201862, “PubChem BioAssay data set” (2004).
# Active and inactive are the calls of the source.
# Assays:
# [1] = M. tuberculosis H37Rv growth inhibitors, H37Rv strain (AID 1626); assay type: functional
# Major prion protein = Major prion protein (Homo sapiens, UniProt P04156); assay type: functional, cell-based
# cells [2] = assay: cells
# Coagulation factor XII = target: T1, Coagulation factor XII (Homo sapiens, UniProt P00748); assay type: functional;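 note: activated factor XIIa alpha cleaving a fluorogenic AMC peptide substrate; inhibitor potency from loss of enzyme activity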
# T1 sequence (P00748 whole entry): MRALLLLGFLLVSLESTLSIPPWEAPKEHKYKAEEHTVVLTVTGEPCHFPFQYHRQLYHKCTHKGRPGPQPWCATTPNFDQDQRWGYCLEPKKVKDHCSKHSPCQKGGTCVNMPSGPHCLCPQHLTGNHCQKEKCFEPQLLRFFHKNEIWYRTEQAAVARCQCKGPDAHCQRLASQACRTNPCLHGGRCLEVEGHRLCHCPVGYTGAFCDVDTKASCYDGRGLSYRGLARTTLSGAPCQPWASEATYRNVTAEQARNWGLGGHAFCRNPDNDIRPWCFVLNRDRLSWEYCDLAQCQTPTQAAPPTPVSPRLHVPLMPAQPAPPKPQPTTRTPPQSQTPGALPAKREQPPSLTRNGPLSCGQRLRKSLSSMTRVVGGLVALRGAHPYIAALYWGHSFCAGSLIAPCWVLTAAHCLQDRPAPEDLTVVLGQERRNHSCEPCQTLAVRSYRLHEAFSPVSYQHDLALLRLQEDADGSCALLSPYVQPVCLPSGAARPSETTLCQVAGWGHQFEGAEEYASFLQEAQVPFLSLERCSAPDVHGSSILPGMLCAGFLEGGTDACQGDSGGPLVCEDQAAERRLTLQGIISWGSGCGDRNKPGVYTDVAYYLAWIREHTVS
# [3] = target: T2, Trace amine-associated receptor 1 (Homo sapiens, UniProt Q96RJ0); assay: Counterscreen for agonists of the human trace amine associated receptor 1 (hTAAR1): Fluorescence-based cell-based high throughput dose response assay to identify hTAAR1 agonist that also desensitize TAAR1 receptor response.; assay type: functional
# T2 sequence (Q96RJ0 whole entry): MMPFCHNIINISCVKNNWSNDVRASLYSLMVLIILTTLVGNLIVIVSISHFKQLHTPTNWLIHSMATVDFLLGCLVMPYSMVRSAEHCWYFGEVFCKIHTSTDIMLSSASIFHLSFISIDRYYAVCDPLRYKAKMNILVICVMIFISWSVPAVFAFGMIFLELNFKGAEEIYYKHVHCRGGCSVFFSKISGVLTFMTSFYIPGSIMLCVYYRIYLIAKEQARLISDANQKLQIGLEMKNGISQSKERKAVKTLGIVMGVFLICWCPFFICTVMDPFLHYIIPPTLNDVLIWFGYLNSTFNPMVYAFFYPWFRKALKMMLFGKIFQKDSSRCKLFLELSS
# cells [4] = assay type: functional, cell-based
# [5] = target: T2, Trace amine-associated receptor 1; assay: Fluorescence-based cell-based high throughput dose response assay to identify agonists of the human trace amine associated receptor 1 (TAAR1).; assay type: functional
# cells [6] = assay type: functional, cell-based; remark: listed apart in the source
# [7] = target: Voltage-dependent T-type calcium channel subunit alpha-1H (Homo sapiens, UniProt O95180); assay type: functional;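 note: channel activity triggered by adding a high calcium stimulation buffer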
# [8] = target: T3, Mannose-6-phosphate isomerase (Homo sapiens, UniProt P34949); assay: human PMI inhibitors, high substrate, primary screen, biochemical, fluorescence intensity, high mannose 6-phosphate (AID 1220)
# T3 sequence (P34949 whole entry): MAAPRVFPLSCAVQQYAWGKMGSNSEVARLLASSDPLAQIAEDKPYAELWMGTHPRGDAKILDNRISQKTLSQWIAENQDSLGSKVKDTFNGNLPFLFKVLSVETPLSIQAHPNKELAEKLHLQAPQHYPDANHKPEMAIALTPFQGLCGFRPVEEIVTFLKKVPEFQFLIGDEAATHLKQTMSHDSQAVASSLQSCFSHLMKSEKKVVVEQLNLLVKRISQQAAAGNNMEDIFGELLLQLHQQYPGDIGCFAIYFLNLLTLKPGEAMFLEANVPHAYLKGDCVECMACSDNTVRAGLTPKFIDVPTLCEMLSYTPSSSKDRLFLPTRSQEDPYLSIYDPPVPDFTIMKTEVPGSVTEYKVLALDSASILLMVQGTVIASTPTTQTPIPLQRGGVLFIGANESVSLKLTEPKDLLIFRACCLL
# [9] = inhibitors of intracellular T. cruzi replication, confirmation, NIH3T3 host cells, beta-gal luminescence (AID 2044); assay type: functional, cell-based;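 note: intracellular parasites grown in NIH/3T3 mouse fibroblasts as host cells; luminescent beta-galactosidase reporter signal from transgenic T. cruzi replicating inside host cells; inhibitors lower the luminescence signal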
# Protein RecA = target: T4, Protein RecA (Mycobacterium tuberculosis, UniProt P9WHJ3); assay: Fluorescence Cell-Free Homogeneous Dose Retest to Identify Inhibitors of RecA-Intein Splicing Activity. [Related pubchem assays (depositor defined):AID2097, AID2223, AID489010, AID492950]; assay type: functional
# T4 sequence (P9WHJ3 whole entry): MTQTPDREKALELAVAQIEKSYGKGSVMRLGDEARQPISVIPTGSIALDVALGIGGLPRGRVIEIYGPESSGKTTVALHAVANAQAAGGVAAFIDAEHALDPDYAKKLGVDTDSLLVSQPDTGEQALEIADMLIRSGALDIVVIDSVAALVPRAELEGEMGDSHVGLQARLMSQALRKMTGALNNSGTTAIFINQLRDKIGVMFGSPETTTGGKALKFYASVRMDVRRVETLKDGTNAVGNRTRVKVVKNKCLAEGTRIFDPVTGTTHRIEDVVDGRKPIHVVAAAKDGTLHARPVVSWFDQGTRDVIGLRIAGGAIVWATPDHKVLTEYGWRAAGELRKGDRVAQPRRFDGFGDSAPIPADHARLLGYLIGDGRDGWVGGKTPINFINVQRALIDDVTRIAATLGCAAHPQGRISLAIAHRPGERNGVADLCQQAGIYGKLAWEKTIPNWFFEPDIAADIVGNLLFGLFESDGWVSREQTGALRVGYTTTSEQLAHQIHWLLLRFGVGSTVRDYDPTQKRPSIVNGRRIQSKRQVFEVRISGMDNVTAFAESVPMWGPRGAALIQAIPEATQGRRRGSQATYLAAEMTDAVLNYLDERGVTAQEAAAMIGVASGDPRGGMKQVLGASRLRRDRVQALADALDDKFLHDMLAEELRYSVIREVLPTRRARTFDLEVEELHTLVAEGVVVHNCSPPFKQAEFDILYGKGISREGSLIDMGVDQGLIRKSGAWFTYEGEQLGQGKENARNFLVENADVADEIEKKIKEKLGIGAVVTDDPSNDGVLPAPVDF
# [10] = cytotoxicity toward NIH3T3 fibroblasts, dose response, counter-screen, cell-based, ATP luminescence, mouse fibroblasts (AID 2010); assay type: functional;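 note: cells exposed to compound for about 90 hours before reading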
# [11] = Luminescence-based cell-based high throughput dose response assay to identify activators of the DAF-12 from the parasite S. stercoralis (ssDAF-12).; assay type: functional
# [12] = target: T5, Oxysterols receptor LXR-beta (Homo sapiens, UniProt P55055); assay: LXR agonists, Gal4 luciferase reporter, dose response, counter-screen for ssDAF-12 agonist project, cell-based, luminescence, HEK293, S. stercoralis campaign (AID 720737); assay type: functional; conditions: read-out: IC50 (the source's name)
# T5 sequence (P55055 whole entry): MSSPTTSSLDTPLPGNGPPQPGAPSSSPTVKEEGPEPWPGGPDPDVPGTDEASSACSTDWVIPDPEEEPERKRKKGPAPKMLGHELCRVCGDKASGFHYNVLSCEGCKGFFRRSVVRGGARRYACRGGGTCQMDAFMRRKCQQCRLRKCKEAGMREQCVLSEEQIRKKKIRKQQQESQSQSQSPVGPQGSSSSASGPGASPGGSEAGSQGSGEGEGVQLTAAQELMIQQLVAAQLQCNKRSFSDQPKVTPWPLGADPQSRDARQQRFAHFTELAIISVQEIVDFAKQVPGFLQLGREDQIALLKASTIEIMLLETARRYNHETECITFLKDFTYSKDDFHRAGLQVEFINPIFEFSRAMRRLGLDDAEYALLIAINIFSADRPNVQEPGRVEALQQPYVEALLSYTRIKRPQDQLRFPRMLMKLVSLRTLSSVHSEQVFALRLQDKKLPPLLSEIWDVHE
# Genome polyprotein = Genome polyprotein (dengue virus type 2, UniProt P29990); assay: Dengue-2 NS5 methyltransferase inhibitors, primary screen, biochemical, confirmation dose response (AID 588689); assay type: functional
# Caspase-6 = target: T6, Caspase-6 (Homo sapiens, UniProt P55212); assay: human caspase-6 inhibitors, dose response, biochemical, VEID-R110 fluorescence, cherry-pick (AID 720632)
# T6 sequence (P55212 whole entry): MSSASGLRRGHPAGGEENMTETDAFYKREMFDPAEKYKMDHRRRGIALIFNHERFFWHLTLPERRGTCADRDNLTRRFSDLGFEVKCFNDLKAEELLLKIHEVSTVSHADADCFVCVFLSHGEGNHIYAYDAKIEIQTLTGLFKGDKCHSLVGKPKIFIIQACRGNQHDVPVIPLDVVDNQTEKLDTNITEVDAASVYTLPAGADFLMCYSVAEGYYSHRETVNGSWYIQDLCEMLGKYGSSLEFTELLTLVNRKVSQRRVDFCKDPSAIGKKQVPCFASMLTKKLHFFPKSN
# [13] = cytotoxicity in OVCAR8 ovarian cancer cells, dose response, PAX8 project, cell-based, plate reader, dry powder samples (AID 743197); assay type: functional; conditions: OVCAR-8
# [14] = inhibitors of PGC1a acetylation in cells, dose response, cell-based, cherry-picked samples (AID 720514); assay type: functional;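 note: potency may reflect raised or lowered acetylation signal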
# Paired box protein Pax-8 = Paired box protein Pax-8 (Homo sapiens, UniProt Q06710); assay: inhibitors of PAX8-driven TPO luciferase reporter, dose response, RMG-I cells, cherry-pick (AID 687027); assay type: functional, cell-based;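 note: luciferase reporter driven by Pax8 target thyroperoxidase promoter measured by SteadyGlo luminescence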
# [15] = NIH:OVCAR-3 ovarian cancer cell cytotoxicity, dose response, PAX8 inhibitor project, plate reader, dry powder samples (AID 743044); assay type: functional, cell-based
# [16] = MC4R antagonists, dose response, counter-screen for LGR2 antagonist project, cell-based, plate reader, cherry pick (AID 743444); assay type: functional;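 note: transfected HEK 293 cells stimulated with alpha-MSH peptide; potency of inhibitors of the alpha-MSH evoked signal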
# [17] = non-specific cell cytotoxicity, dose response, cytotoxicity control for PAX8 inhibitor project, plate reader, dry powder samples (AID 743021); assay type: functional, cell-based
# [18] = HEK293 cell cytotoxicity, dose response, cytotoxicity control, plate reader, cherry-picked samples (AID 743446); assay type: functional, cell-based
# [19] = HepG2 cell cytotoxicity, dose response, cytotoxicity control, plate reader, cherry-pick, antagonist series (AID 743416); assay type: functional, cell-based
# [20] = IGROV1 ovarian cancer cell cytotoxicity, dose response, PAX8 inhibitor project, plate reader, dry powder samples (AID 743043); assay type: functional, cell-based; conditions: IGROV-1
# [21] = A549 cell cytotoxicity, dose response, cytotoxicity control, plate reader, cherry-pick, antagonist series (AID 743412); assay type: functional, cell-based
# Sequence of Paired box protein Pax-8 (Q06710 whole entry): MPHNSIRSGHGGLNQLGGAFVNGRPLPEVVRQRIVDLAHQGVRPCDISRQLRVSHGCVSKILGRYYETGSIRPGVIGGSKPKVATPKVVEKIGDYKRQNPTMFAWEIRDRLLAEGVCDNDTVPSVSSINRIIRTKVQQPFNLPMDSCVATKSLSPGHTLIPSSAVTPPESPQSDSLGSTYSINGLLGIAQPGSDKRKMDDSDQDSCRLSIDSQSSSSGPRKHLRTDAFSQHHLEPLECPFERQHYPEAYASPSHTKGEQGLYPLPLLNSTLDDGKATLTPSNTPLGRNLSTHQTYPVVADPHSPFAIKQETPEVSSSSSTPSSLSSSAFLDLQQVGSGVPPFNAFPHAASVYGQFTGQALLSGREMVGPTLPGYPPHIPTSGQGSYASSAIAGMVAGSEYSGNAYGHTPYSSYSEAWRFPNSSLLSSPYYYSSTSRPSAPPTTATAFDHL
# Sequence of Genome polyprotein (P29990 2492-3391 limits assumed): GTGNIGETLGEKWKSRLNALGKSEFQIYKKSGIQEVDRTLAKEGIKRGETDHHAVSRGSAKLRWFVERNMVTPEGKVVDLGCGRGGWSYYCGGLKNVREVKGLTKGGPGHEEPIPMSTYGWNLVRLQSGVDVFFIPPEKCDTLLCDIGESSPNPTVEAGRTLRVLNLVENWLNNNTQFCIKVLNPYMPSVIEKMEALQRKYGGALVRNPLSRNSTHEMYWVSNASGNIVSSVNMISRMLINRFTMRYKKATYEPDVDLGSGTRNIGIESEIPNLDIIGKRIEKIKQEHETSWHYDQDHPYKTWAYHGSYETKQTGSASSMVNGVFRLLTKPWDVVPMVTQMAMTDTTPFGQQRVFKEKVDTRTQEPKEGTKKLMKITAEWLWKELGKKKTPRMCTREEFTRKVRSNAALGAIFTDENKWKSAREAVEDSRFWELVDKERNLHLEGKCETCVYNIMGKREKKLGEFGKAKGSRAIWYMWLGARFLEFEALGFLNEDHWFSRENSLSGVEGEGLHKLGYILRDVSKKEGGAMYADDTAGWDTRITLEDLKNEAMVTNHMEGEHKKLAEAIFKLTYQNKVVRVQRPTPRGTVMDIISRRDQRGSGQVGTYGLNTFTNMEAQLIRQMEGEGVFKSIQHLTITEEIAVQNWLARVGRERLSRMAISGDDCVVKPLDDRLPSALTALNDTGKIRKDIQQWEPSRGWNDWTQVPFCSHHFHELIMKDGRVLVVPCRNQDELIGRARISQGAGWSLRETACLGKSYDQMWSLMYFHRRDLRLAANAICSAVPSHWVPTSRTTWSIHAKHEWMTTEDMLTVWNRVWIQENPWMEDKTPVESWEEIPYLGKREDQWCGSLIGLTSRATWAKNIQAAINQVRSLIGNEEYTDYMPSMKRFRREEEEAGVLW
# Sequence of Voltage-dependent T-type calcium channel subunit alpha-1H (O95180 whole entry): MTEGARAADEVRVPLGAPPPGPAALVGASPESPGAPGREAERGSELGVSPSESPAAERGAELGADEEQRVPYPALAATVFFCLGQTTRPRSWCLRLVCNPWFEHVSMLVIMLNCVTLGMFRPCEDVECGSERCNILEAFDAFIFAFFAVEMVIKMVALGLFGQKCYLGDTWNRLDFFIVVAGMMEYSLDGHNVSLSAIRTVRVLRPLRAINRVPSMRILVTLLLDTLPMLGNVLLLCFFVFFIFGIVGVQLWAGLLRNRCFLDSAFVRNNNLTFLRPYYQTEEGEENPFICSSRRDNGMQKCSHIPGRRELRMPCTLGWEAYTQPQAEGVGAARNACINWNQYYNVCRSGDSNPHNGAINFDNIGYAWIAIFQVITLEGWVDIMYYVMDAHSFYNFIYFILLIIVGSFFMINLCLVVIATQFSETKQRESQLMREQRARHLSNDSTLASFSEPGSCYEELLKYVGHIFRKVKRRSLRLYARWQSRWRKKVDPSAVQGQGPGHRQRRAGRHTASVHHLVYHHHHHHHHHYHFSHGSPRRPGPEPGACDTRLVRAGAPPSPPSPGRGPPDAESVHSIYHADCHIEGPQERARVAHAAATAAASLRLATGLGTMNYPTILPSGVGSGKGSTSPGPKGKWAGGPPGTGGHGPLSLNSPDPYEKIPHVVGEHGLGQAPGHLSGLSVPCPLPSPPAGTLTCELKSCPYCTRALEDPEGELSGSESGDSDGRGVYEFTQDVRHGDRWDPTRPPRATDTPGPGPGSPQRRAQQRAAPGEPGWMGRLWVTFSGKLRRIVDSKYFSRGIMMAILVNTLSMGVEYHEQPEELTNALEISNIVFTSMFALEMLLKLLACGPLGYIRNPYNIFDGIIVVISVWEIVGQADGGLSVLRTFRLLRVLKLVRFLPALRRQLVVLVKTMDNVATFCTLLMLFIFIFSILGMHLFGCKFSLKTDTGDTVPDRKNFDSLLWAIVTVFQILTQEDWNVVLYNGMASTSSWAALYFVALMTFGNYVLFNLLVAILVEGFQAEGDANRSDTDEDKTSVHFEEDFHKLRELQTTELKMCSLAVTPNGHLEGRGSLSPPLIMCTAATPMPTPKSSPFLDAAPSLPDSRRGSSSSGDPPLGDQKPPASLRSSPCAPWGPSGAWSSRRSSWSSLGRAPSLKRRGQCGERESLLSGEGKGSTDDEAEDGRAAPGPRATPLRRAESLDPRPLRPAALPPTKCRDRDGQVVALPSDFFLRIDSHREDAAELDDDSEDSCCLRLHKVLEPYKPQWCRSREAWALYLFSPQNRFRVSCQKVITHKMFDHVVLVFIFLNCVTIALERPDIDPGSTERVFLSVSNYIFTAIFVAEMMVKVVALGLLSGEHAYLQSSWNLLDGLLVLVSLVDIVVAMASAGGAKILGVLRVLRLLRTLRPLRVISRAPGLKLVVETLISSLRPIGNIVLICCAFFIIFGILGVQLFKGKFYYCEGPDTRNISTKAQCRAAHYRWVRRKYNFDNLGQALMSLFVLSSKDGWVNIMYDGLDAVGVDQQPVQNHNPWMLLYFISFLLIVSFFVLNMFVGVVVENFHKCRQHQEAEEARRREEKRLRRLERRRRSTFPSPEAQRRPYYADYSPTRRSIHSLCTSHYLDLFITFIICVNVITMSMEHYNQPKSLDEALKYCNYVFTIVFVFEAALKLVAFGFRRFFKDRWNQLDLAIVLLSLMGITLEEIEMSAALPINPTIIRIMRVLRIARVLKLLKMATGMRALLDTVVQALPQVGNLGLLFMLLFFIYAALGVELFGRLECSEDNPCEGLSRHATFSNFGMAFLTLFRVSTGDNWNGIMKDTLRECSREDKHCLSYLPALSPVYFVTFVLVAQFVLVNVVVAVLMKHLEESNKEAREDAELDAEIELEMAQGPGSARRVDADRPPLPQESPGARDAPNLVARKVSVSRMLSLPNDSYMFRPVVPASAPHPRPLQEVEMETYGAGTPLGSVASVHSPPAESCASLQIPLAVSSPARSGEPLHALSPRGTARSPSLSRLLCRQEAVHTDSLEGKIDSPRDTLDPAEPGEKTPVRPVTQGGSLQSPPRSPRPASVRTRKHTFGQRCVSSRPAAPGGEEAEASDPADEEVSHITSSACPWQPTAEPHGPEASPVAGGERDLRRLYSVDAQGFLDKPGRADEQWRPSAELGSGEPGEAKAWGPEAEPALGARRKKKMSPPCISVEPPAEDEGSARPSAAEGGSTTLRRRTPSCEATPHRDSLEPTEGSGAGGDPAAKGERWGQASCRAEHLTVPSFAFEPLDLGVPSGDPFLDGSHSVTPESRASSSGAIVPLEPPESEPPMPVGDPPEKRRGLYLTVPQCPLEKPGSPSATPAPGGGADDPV
smiles,measurement,setting,value
Cc1ccc(NC(=O)COC(=O)CC2CCCC2)cc1Cl,IC50,[1],> 100 µM (active)
Cc1cc(SCCC(=O)O)nc2c(C)cccc12,IC50,Major prion protein,4.67 µM (active)
same,IC50,cells [2],> 138 µM (inactive)
Cc1ccc(-c2nc(CS(=O)(=O)CC(=O)N3CCc4ccccc4C3)c(C)o2)cc1,IC50,Coagulation factor XII,> 50 µM (inactive)
same,IC50,[3],5.4 µM (active)
same,IC50,cells [4],> 29.9 µM (inactive)
same,EC50,[5],2.23 µM (active)
same,EC50,cells [6],> 29.9 µM (inactive)
same,EC50,[7],2.21 µM (active)
CCCCn1c(N)c(C(=O)NCc2cccs2)c2nc3ccccc3nc21,IC50,[8],> 50 µM (not active)
same,EC50,[9],2.83 µM (active)
same,EC50,Protein RecA,47.4 µM (inconclusive)
same,EC50,[10],> 60 µM (not active)
Cc1ccc(Cc2cnc(NC(=O)C3CCCO3)s2)cc1 (stereo not given),IC50,[1],> 100 µM (active)
CC(=O)Nc1cccc(OCc2ccc(F)cc2)c1,IC50,[1],> 100 µM (active)
Cc1ccc(NC(=O)Nc2cccc(C(F)(F)F)c2)nc1,IC50,[11],> 67.6 µM (inactive)
same,EC50,[12],> 67.6 µM (inactive)
COC(=O)c1c(C)oc2c1cc(NS(=O)(=O)c1ccc(C(=O)O)cc1)c1ccccc12,IC50,Genome polyprotein,69 µM (active)
same,AC50,Caspase-6,22.6 µM (active)
Cc1ccc(NC(=O)c2ccccn2)c(Br)c1,IC50,[11],> 67.5 µM (inactive)
same,EC50,[12],> 67.5 µM (inactive)
CN(CC(=O)Nc1cccc(F)c1)C(=O)c1cccc(S(=O)(=O)N2CCN(Cc3ccccc3)CC2)c1,IC50,[11],> 67.5 µM (inactive)
same,EC50,[12],> 67.5 µM (inactive)
Cc1ccc(S(=O)(=O)N(C)C[C@H]2Oc3cc(C#Cc4ccncc4)ccc3S(=O)(=O)N([C@H](C)CO)C[C@H]2C)cc1,AC50,[13],17.4 µM (active)
same,AC50,[14],4.27 µM (active)
same,AC50,Paired box protein Pax-8,4.03 µM (active)
same,AC50,[15],9.03 µM (active)
C[C@@H]1CCCCO[C@H](CN(C)CC2CCCCC2)[C@H](C)CN([C@H](C)CO)C(=O)c2cc(NS(=O)(=O)c3ccccc3)ccc2O1,AC50,[16],42.6 µM (active)
same,AC50,[17],39.7 µM (active)
same,AC50,[13],> 70 µM (inactive)
same,AC50,[18],30.8 µM (active)
same,AC50,[19],27.6 µM (active)
same,AC50,Paired box protein Pax-8,20.1 µM (active)
same,AC50,[15],55 µM (active)
same,AC50,[20],57.1 µM (active)
same,AC50,[21],17.1 µM (active)
COc1ccc(-c2ccc([C@@H]3[C@@H]4CN(C(=O)Nc5cccc(F)c5)C[C@H]3N4)cc2)cc1,AC50,[17],41 µM (active)
same,AC50,[13],58.5 µM (active)
same,AC50,Paired box protein Pax-8,5.09 µM (active)
same,AC50,[15],18.9 µM (active)
same,AC50,[20],28.4 µM (active)
COC(=O)C1=C(C)N(Cc2cccc(C(F)(F)F)c2)C(NCc2ccc(OC)cc2)=NC1c1cccc(F)c1 (stereo not given),AC50,[17],33.3 µM (active)
same,AC50,Paired box protein Pax-8,11.5 µM (active)
CC(C)C#Cc1ccc2c(c1)O[C@@H](CN(C)Cc1ccccc1)[C@@H](C)CN([C@@H](C)CO)S2(=O)=O,AC50,[14],16 µM (active)
COCc1ccc(CN2CCC(n3nccc3NC(=O)c3ccc4c(c3)OCO4)CC2)o1,AC50,[14],29.9 µM (active)
